Experiments:
[1] = physchem; details: buffer
[2] = tested on: Folate receptor alpha expressing KB cells; test: Imaging study demonstrating endocytosis and Si-O cleavage (confocal microscopy); format: cell-based; details: 50 nM
Method: Example 79 as shown above contains a folate receptor targeting ligand, a spacer moiety, a siloxane core and two different fluorescent dyes (BODIPY and rhodamine) positioned on either side of the siloxane core. Folate receptor alpha expressing KB cells were grown in folic acid free media. The cells were incubated for 30 minutes on ice with 50 nM of Example 79, washed with fresh culture medium and then incubated in media at 37° C. for the desired length of time. The fate of both dyes was simultaneously monitored using confocal microscopy using Zeiss LSM 780 laser scanning microscope.

[3] = Hydrolysis studies of silicon-linker constructs and conjugates (HEPES buffer, UPLC/MS)
[4] = tested on: KB cells; test: Cellular data: KB cell viability (Cell titer-glo luminescence); format: cell-based; details: for EC50: folate free RPMI, 2 h compound incubation, wash, additional 70 h; for % Kill (48 h): percent cell kill at 48 h
Method: KB cells in culture were seeded in white clear bottom 96-well tissue culture plate at a density of 5,000 cells per well in a folate free RPMI media with 10% FBS a day prior to compound addition. Cells were counted visually with a hemocytometer and diluted accordingly to obtain the desired density. Cells were allowed to incubate for 24 hours in a humidified CO2 atmosphere in an incubator at 37° C. The spent media was aspirated and replenished with 100 μL of fresh media containing a 3-fold serial dilution of compound with concentrations ranging from 0.3 to 2000 nM and with a final DMSO concentration of 0.1%. Blank wells without compound were also treated with media containing 0.1% DMSO. […] […] At the end of 70 h, the spent media was removed and cells were washed once with fresh media and then suspended 100 μL of PBS. 100 μL of constituted Cell titer-glo reagent was added to each well and luminescence was recorded with a VICTOR plate reader according to manufacturers' protocol.

SMILES | half-life ([1]; pH 5) | half-life ([1]; pH 7.4) | further results
C[Si](C)(CCCC(=O)O)O[Si](C)(C)c1ccccc1 [Example 1, 4-(1,1,3,3-Tetramethyl-3-phenyldisiloxanyl)butanoic acid] | 1.67 h | > 24 h | –
CCOC(=O)CCC[Si](C)(C)O[Si](C)(C)CCCC(=O)O [Example 7, 4-(3-(4-ethoxy-4-oxobutyl)-1,1,3,3-tetramethyldisiloxanyl)butanoic acid] | 0.333 h | > 24 h | –
C[Si](C)(C)O[Si](C)(C)CSc1ncccn1 [Example 8, 2-(((1,1,3,3,3-Pentamethyldisiloxanyl)methyl)thio)pyrimidine] | 0.0833 h | 24 h | –
Cc1cc(C)nc(SC[Si](C)(C)O[Si](C)(C)C)n1 [Example 9, 4,6-Dimethyl-2-(((1,1,3,3,3-pentamethyldisiloxanyl)methyl)thio)pyrimidine] | 0.417 h | 40 h | –
C[Si](C)(C)O[Si](C)(C)CS(=O)(=O)c1ncccn1 [Example 10, 2-(((1,1,3,3,3-Pentamethyldisiloxanyl)methyl)sulfonyl)pyrimidine] | 0.583 h | 0.583 h | –
C[Si](C)(COc1ncccn1)O[Si](C)(C)COc1ncccn1 [Example 15, 1,1,3,3-Tetramethyl-1,3-bis((pyrimidin-2-yloxy)methyl)disiloxane] | 0.417 h | > 4 h | –
Cc1ccnc(SC[Si](C)(C)O[Si](C)(C)C)n1 [Example 27, 4-Methyl-2-(((1,1,3,3,3-pentamethyldisiloxanyl)methyl)thio)pyrimidine] | 0.2 h | > 2 h | –
C[Si](C)(C)O[Si](C)(C)CSc1nccc(C(F)(F)F)n1 [Example 28, 2-(((1,1,3,3,3-pentamethyldisiloxanyl)methyl)thio)-4-(trifluoromethyl)pyrimidine] | > 2 h | – | –
C[Si](C)(C)O[Si](C)(C)CSc1cnccn1 [Example 31, 2-(((1,1,3,3,3-pentamethyldisiloxanyl)methyl)thio)pyrazine] | 0.5 h | – | –
CC(C)C(=O)NCCC[Si](C)(C)O[Si](C)(C)CSc1ncccn1 [Example 34, N-(3-(1,1,3,3-Tetramethyl-3-((pyrimidin-2-ylthio)methyl)disiloxanyl)propyl) isobutyramide] | 0.0333 h | > 2 h | –
CC(=O)NCCC[Si](C)(C)O[Si](C)(C)CSc1ncc(Cn2cc(-c3ccccc3)nn2)cn1 [Example 62, N-(3-(1,1,3,3-tetramethyl-3-(((5-((4-phenyl-1H-1,2,3-triazol-1-yl)methyl)pyrimidin-2-yl)thio)methyl)disiloxanyl)propyl)acetamide] | 0.333 h | > 3 h | –
CC(=O)NCCC[Si](C)(C)O[Si](C)(C)CSc1ncc(COCCOCCOCCn2cc(COCC(COCc3cn(CCOCCOCCOCc4cnc(SC[Si](C)(C)O[Si](C)(C)CCCNC(C)=O)nc4)nn3)(COCc3cn(CCOCCOCCOCc4cnc(SC[Si](C)(C)O[Si](C)(C)CCCNC(C)=O)nc4)nn3)NC(C)=O)nn2)cn1 [Example 63] | 1 h | > 18 h | –
CC(=O)NCCC[Si](C)(C)O[Si](C)(C)CCCn1cc(-c2ccccc2)nn1 [Example 69, N-(3-(1,1,3,3-tetramethyl-3-(3-(4-phenyl-1H-1,2,3-triazol-1-yl)propyl)disiloxanyl)propyl)acetamide] | 4 h | > 6 h | –
CC(=O)NCCC[Si](C)(C)O[Si](C)(C)CSc1ncc(Cn2cc(-c3ccc(COCC(COCc4ccc(-c5cn(Cc6cnc(SC[Si](C)(C)O[Si](C)(C)CCCNC(C)=O)nc6)nn5)cc4)(COCc4ccc(-c5cn(Cc6cnc(SC[Si](C)(C)O[Si](C)(C)CCCNC(C)=O)nc6)nn5)cc4)NC(=O)OC(C)(C)C)cc3)nn2)cn1 [Example 73, tert-butyl(1,3-bis((4-(1-((2-(((3-(3-acetamidopropyl)-1,1,3,3-tetramethyldisiloxanyl)methyl)thio)pyrimidin-5-yl)methyl)-1H-1,2,3-triazol-4-yl)benzyl)oxy)-2-(((4-(1-((2-(((3-(3-acetamidopropyl)-1,1,3,3-tetramethyldisiloxanyl)methyl)thio)pyrimidin-5-yl)methyl)-1H-1,2,3-triazol-4-yl)benzyl)oxy)methyl)propan-2-yl)carbamate] | 18 h | > 18 h | –
CCN(CC)c1ccc2c(-c3ccc(S(=O)(=O)NCc4cnc(SC[Si](C)(C)O[Si](C)(C)CCCN5C(=O)CC(SC[C@H](NC(=O)[C@H](CNC(=O)CCC6=[N+]7C(=Cc8c(C)cc(C)n8[B-]7(F)F)C=C6)NC(=O)[C@H](CC(=O)O)NC(=O)CC[C@H](NC(=O)c6ccc(NCc7cnc8nc(N)[nH]c(=O)c8n7)cc6)C(=O)O)C(=O)O)C5=O)nc4)cc3S(=O)(=O)[O-])c3ccc(=[N+](CC)CC)cc-3oc2c1 (stereo partly shown) [Example 79] | – | – | Cleavage of the siloxane core (color separation of the two fluorescent dyes) ([2]; 37° C., t=30 min): cleavage of the siloxane core was observed; Endocytosis of intact conjugate into the cell ([2]; 37° C., t=30 min): endocytosis of intact Example 79 into the cell was observed; Binding to the folate receptor on the cell surface (colocalization of dyes) ([2]; 30 minutes on ice, t=0): bound to the folate receptor on the cell surface; half-life ([3]; pH 5): 1.67 h; half-life ([3]; pH 7.4): > 18 h
CC[C@]1(O)C[C@@H]2C[N@@](CCc3c([nH]c4ccccc34)[C@@](C(=O)OC)(c3cc4c(cc3OC)N(C)[C@H]3[C@@](O)(C(=O)NCCC[Si](C)(C)O[Si](C)(C)CSc5ncc(Cn6cc(COCCOCCOCCOCCOCCOCCNC(=O)CC[C@H](NC(=O)c7ccc(NCc8cnc9nc(N)[nH]c(=O)c9n8)cc7)C(=O)O)nn6)cn5)[C@H](O)[C@]5(CC)C=CCN6CC[C@]43[C@@H]65)C2)C1 [Example 80] | – | – | EC50 [4]: ~265 nM; % Kill (48 h) [4]: 84%; half-life ([3]; pH 5): 0.75 h; half-life ([3]; pH 7.4): 24 h
CC[C@]1(O)C[C@@H]2CN(CCc3c([nH]c4ccccc34)[C@@](C(=O)OC)(c3cc4c(cc3OC)N(C)[C@H]3[C@@](O)(C(=O)NCCC[Si](C)(C)O[Si](C)(C)CSc5ncc(Cn6cc(C[C@H](NC(=O)[C@H](CC(=O)O)NC(=O)[C@H](CC(=O)O)NC(=O)[C@H](CCCNC(=N)N)NC(=O)[C@H](CC(=O)O)NC(=O)CC[C@H](NC(=O)c7ccc(NCc8cnc9nc(N)[nH]c(=O)c9n8)cc7)C(=O)O)C(=O)O)nn6)cn5)[C@H](O)[C@]5(CC)C=CCN6CC[C@]43[C@@H]65)C2)C1 [Example 81] | – | – | % Kill (48 h) [4]: 86%; half-life ([3]; pH 5): 0.583 h; half-life ([3]; pH 7.4): 24 h
CC[C@]1(O)C[C@H]2CN(CCc3c([nH]c4ccccc34)[C@@](C(=O)OC)(c3cc4c(cc3OC)N(C)[C@H]3[C@@](O)(C(=O)NCCC[Si](C)(C)O[Si](C)(C)CSc5ncc(COCCOCCOCCn6cc(COCC(COCc7cn(CCOCCOCCOCc8cnc(SC[Si](C)(C)O[Si](C)(C)CCCNC(=O)[C@@]9(O)[C@H](O)[C@]%10(CC)C=CCN%11CC[C@@]%12(c%13cc([C@@]%14(C(=O)OC)C[C@@H]%15CN(CCc%16c%14[nH]c%14ccccc%16%14)C[C@](O)(CC)C%15)c(OC)cc%13N(C)[C@@H]9%12)[C@@H]%11%10)nc8)nn7)(COCc7cn(CCOCCOCCOCc8cnc(SC[Si](C)(C)O[Si](C)(C)CCCNC(=O)[C@@]9(O)[C@H](O)[C@]%10(CC)C=CCN%11CC[C@@]%12(c%13cc([C@@]%14(C(=O)OC)C[C@@H]%15CN(CCc%16c%14[nH]c%14ccccc%16%14)C[C@](O)(CC)C%15)c(OC)cc%13N(C)[C@@H]9%12)[C@@H]%11%10)nc8)nn7)NC(=O)CCOCCOCCOCCOCCOCCOCCNC(=O)CC[C@H](NC(=O)c7ccc(NCc8cnc9nc(N)[nH]c(=O)c9n8)cc7)C(=O)O)nn6)cn5)[C@H](O)[C@]5(CC)C=CCN6CC[C@]43[C@@H]65)C2)C1 (stereo partly shown) [Example 82] | – | – | EC50 [4]: ~193 nM; % Kill (48 h) [4]: 80%; half-life ([3]; pH 5): 1 h; half-life ([3]; pH 7.4): > 24 h
CC[C@]1(O)C[C@H]2CN(CCc3c([nH]c4ccccc34)[C@@](C(=O)OC)(c3cc4c(cc3OC)N(C)[C@H]3[C@@](O)(C(=O)NCCC[Si](C)(C)O[Si](C)(C)CSc5ncc(Cn6cc(COCC(COCc7cn(Cc8cnc(SC[Si](C)(C)O[Si](C)(C)CCCNC(=O)[C@@]9(O)[C@H](O)[C@]%10(CC)C=CCN%11CC[C@@]%12(c%13cc([C@@]%14(C(=O)OC)C[C@@H]%15CN(CCc%16c%14[nH]c%14ccccc%16%14)C[C@](O)(CC)C%15)c(OC)cc%13N(C)[C@@H]9%12)[C@@H]%11%10)nc8)nn7)(COCc7cn(Cc8cnc(SC[Si](C)(C)O[Si](C)(C)CCCNC(=O)[C@@]9(O)[C@H](O)[C@]%10(CC)C=CCN%11CC[C@@]%12(c%13cc([C@@]%14(C(=O)OC)C[C@@H]%15CN(CCc%16c%14[nH]c%14ccccc%16%14)C[C@](O)(CC)C%15)c(OC)cc%13N(C)[C@@H]9%12)[C@@H]%11%10)nc8)nn7)NC(=O)CCOCCOCCOCCOCCOCCOCCNC(=O)CC[C@H](NC(=O)c7ccc(NCc8cnc9nc(N)[nH]c(=O)c9n8)cc7)C(=O)O)nn6)cn5)[C@H](O)[C@]5(CC)C=CCN6CC[C@]43[C@@H]65)C2)C1 (stereo partly shown) [Example 83] | – | – | half-life ([3]; pH 7.4): > 24 h
